Source: patent US20100227401A1, “MEDIA AND PROCESSES FOR THE EX VIVO PRODUCTION OF MEGAKARYOCYTES FROM HUMAN CD34+ CELLS” (FOOD INDUSTRY RESEARCH AND DEVELOPMENT INSTITUTE, priority 2003, published 2010)

Key:
[1] = test system: serum-free expanded CD34^+ cells; assay: Ex vivo Mk induction from serum-free expanded CD34+ cells, 1-week induction, TNC count and Mk count (CD41a+CD61+); assay type: cell-based, human; settings: preliminary screening of serum substitutes (data not shown)
Protocol: Each experiment was repeated at least four times. […] (1978), Statistics for Experimenters: An Introduction to Design, Data Analysis, and Model Building, Wiley, New York). In addition, the statistical significance was determined by an F-test, and the significance of the regression coefficient was analyzed by a t-test. […] After cultivation for 1 week, the cells were collected and subjected to the TNC count as described above and a megakaryocyte count (Mk count) so as to evaluate the ex vivo megakaryocytopoietic effects of the tested serum substitutes and cytokines. The Mk count was conducted by labeling the collected cells with CD41a-FITC and CD61-PE and analyzed according to the operating procedure described in the following section, entitled “4. […] The incubation was terminated by washing three times with 1 mL FACS buffer. Optionally, the first antibody-labeled cells were further incubated with a second antibody conjugated with PE or FITC in the same manner. After washing with FACS buffer, the labeled cells were resuspended in 1 mL FACS buffer and analyzed on a FACSCalibur analyzer (Becton-Dickinson, NJ, USA). The data were analyzed by CellQuest software. A replicate sample incubated with FITC- or PE-conjugated mouse IgG1 was used as an isotype control for specificity. […] SF-Mk as established in Example 1, IMDM+10% FBS, IMDM+2% FBS, […]-VIVO 10, X-VIVO 15, X-VIVO 20,[…], DMEM, RPMI 1640, α-MEM, BME medium, […] medium, and Medium 199, respectively. IMDM+10% FBS, IMDM+2% FBS, […]-VIVO 10, X-VIVO 15, X-VIVO 20,[…], DMEM, RPMI 1640, α-MEM, BME medium, […] medium and Medium 199 were respectively supplemented with the cytokine cocktail (CC) as screened in Example 1. […] After 1-week induction, the Mk number of each group was calculated. […] IMDM supplemented with a serum substitute consisting of 4.9 g/L BSA, 2.72 μg/mL insulin, and 80 μg/mL transferrin (based on the applicants' previous study, unpublished data) and the reference cytokine cocktail as previously reported in Te-Wei Chen et al. (2009), supra; and • (3) FBS group: IMDM supplemented with 10% FBS and the reference cytokine cocktail.

[2] = test system: CD34^+-selected cells; settings: PMP 200 ng/mL; TPO 10 ng/mL, IL-3 10 ng/mL; cited from earlier work
[3] = test system: hematopoietic progenitor cells (HPCs); settings: cited from earlier work
[4] = mpIL added to growth factor cocktail

Compound | effect on ex vivo megakaryocytopoiesis [1] | also measured
OCCS [Step 2-ME, 2-mercaptoethanol] | no effect | –
transferrin | significantly positive effects | –
insulin | significantly positive effects | –
promegapoietin [PMP] | – | megakaryocytopoietic activity [2]: comparable to that achieved with TPO plus IL-3
NC(=O)CC[C@H](N)C(=O)O [L-glutamine] | no effect | –
CC(=O)C(=O)[O-].[Na+] [sodium pyruvate] | no effect | –
mpIL: recombinant mpl ligand | – | Mk purity level [3, 4]: 80%; final yield of Mks [3, 4]: 4×10^5; cell number ([3]; mpIL alone): 1.5×10^5 cells
